Columns and labels:
[1] = Pharmacokinetics following single intravenous and oral gavage dosing (AUC0-24h); format: in vivo; conditions: mouse, plasma, male CD-1 mice
Procedure, shortened: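 Male CD-1 mice (3 per route) given a single iv (5 mL/kg) or oral gavage (10 mL/kg) dose in 10% DMSO/30% PEG400/60% aqueous 20% hydroxypropyl-β-cyclodextrin. Plasma sampled to 24 h and measured by LC/MS/MS. PK parameters derived by non-compartmental analysis.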

SW620 cells = experiment: 3D cell growth inhibition of SW620 cells carrying endogenous KRAS G12V mutation (CellTiter-Glo 3D, GI50); format: cell-based; conditions: Homo sapiens, SW-620, 144 h; SW620 cells, 6 days; read-out: SW620 3D cell growth GI50
Procedure, shortened: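 SW620 cells (endogenous KRAS G12V) grown in 3D were dosed next day with compound from DMSO stocks at various concentrations, then incubated 6 days at 37° C.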

KRAS G12V = KRAS G12V (Homo sapiens (Human), UniProt P01116, G12V); experiment: KRAS G12V degradation in SW620 cells (Western blot, DC50); format: cell-based; conditions: 24 hours
Procedure, shortened: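 SW620 cells (homozygous KRAS G12V) were treated with compound for 24 hours at 37° C. KRAS in lysates was measured by Western blot with fluorescent secondary antibodies and expressed relative to DMSO vehicle (100%). DC50 came from a four-parameter variable-slope dose-response fit.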

KRAS-G12V/RAF1 = KRAS-G12V/RAF1 (Homo sapiens (Human), UniProt P01116, G12V); experiment: KRAS/RAF1 binding inhibition assay (AlphaScreen)
Procedure, shortened: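 Binding of GppNHp-loaded KRAS G12V to the RAF1 RBD was measured by AlphaScreen with test compound present in 2% DMSO (final), 60 min incubation at 4° C. Signals were converted to % inhibition versus DMSO, and IC50 was obtained by variable-slope nonlinear regression.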

KRAS-G12V/RAF1, sequence (P01116-2 other isoform, or with tags, fused parts or gaps G12V): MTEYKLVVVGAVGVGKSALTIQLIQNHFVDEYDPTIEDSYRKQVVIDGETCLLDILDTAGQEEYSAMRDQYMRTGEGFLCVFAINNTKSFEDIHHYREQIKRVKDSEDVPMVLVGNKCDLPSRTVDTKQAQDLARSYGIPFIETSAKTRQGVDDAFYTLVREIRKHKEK
KRAS G12V, sequence (P01116-2 other isoform, or with tags, fused parts or gaps G12V): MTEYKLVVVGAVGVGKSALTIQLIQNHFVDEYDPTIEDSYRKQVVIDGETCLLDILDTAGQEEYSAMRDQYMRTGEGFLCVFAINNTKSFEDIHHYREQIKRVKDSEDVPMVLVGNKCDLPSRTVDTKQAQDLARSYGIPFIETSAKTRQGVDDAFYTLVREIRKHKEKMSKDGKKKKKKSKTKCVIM

CCc1c(F)ccc2cc(O)cc(-c3ncc4c(N5CCC[C@]6(CCO6)C5)nc(OCC5(CN6CCC(CN7CCN(c8cc(F)c(C9CCC(=O)NC9=O)c(F)c8)CC7)CC6)CC5)nc4c3F)c12 (stereo partly drawn) [Compound 216, 3-(4-(4-((1-((1-(((7-(8-ethyl-7-fluoro-3-hydroxynaphthalen-1-yl)-8-fluoro-4-((S)-1-oxa-6-azaspiro[3.5]nonan-6-yl)pyrido[4,3-d]pyrimidin-2-yl)oxy)methyl)cyclopropyl)methyl)piperidin-4-yl)methyl)piperazin-1-yl)-2,6-difluorophenyl)piperidine-2,6-dione]
AUC(0-t) ([1]; single oral dose 15 mg/Kg): 2140 ng·h/mL | GI50 (SW620 cells): < 10 nM | DC50 (KRAS G12V): 1 to 10 nM | IC50 (KRAS-G12V/RAF1): > 200 nM

CCc1c(F)ccc2cc(O)cc(-c3ncc4c(N5CCC[C@]6(CCO6)C5)nc(OCC5(CN6CCC(C)(CN7CCN(c8ccc9c(c8)CN([C@H]8CCC(=O)NC8=O)C9=O)CC7)CC6)CC5)nc4c3F)c12 [Compound 217, (S)-3-(5-(4-((1-((1-(((7-(8-ethyl-7-fluoro-3-hydroxynaphthalen-1-yl)-8-fluoro-4-((S)-1-oxa-6-azaspiro[3.5]nonan-6-yl)pyrido[4,3-d]pyrimidin-2-yl)oxy)methyl)cyclopropyl)methyl)-4-methylpiperidin-4-yl)methyl)piperazin-1-yl)-1-oxoisoindolin-2-yl)piperidine-2,6-dione]
AUC(0-t) ([1]; single oral dose 15 mg/Kg): 977 ng·h/mL | GI50 (SW620 cells): < 10 nM | DC50 (KRAS G12V): < 1 nM | IC50 (KRAS-G12V/RAF1): 20 to 200 nM

CCc1c(F)ccc2cc(O)cc(-c3ncc4c(N5CCC[C@]6(CCO6)C5)nc(OCC5(CN6CCC7(CCC(N8CCN(c9ccc%10c(c9)CN([C@H]9CCC(=O)NC9=O)C%10=O)CC8)CC7)CC6)CC5)nc4c3F)c12 [Compound 219, (S)-3-(5-(4-(3-((1-(((7-(8-ethyl-7-fluoro-3-hydroxynaphthalen-1-yl)-8-fluoro-4-((S)-1-oxa-6-azaspiro[3.5]nonan-6-yl)pyrido[4,3-d]pyrimidin-2-yl)oxy)methyl)cyclopropyl)methyl)-3-azaspiro[5.5]undecan-9-yl)piperazin-1-yl)-1-oxoisoindolin-2-yl)piperidine-2,6-dione]
AUC(0-t) ([1]; single oral dose 30 mg/Kg): 718 ng·h/mL | GI50 (SW620 cells): < 10 nM | DC50 (KRAS G12V): < 1 nM | IC50 (KRAS-G12V/RAF1): < 20 nM
